Experimental data reported in patent publication US20020182260A1, “Anti-inflammatory agents and methods for their preparation and use” (Cellegy Pharmaceuticals, Inc., priority 1998, published 2002).
Where two headings read alike, the source gives them in different places.

Experiments:
Format in all cases: cell-based
[1] = tested on: T-lymphocytes isolated from mouse thymus; test: T-lymphocyte proliferation assay (Con A, [3H]thymidine incorporation); settings: read-out: IC50, suppression of T-cell proliferation
Procedure: T-lymphocytes were isolated from mouse thymus by standard methods, and suspended in DMEM (see, e.g., Mishell B B and Shiigi S M, eds., “Cell Proliferation” in Selected Methods in Cellular Immunology, V, XXIX, W. H. Freeman Co., San Francisco, Calif. pp. 153-160, 1980 and Dayton et al. (1992) Mol. Pharmacol. 41: 671-676). A total of 5×10^6 cells/ml were incubated overnight at 37° C. in the presence of 3 μg/ml Con A to assess stimulation (positive score, related to 10 U/ml of rat interleukin-2) or suppression (negative score, related to control) of cell proliferation. Test substances were evaluated under these conditions at a pre-defined concentration. After overnight incubation, 2 μCi [^3H]thymidine was added to each well. Cells were harvested after an additional 48 hours incubation, and thymidine incorporation assessed by liquid scintillation counting.
All 40 fractions were subsequently tested in the ConA-induced T-cell proliferation assay, the same assay described in Example 4. Fractions providing greater than or equal to 40% suppression are considered active.

[2] = tested on: B-lymphocytes isolated from mouse spleen; test: B-lymphocyte proliferation assay (LPS, [3H]thymidine incorporation); settings: B-cell, read-out: IC50, suppression of B-cell proliferation
Procedure: B-lymphocytes were isolated from mouse spleen by standard methods, and suspended in DMEM. A total of 10^6 cells/ml were incubated overnight at 37° C. in the presence of 1 μg/ml lipopolysaccharide (LPS) to assess stimulation (positive score, related to control) or suppression (negative score, related to control) of cell proliferation. Test substances were evaluated under these conditions at a pre-defined concentration. After overnight incubation, 2 μCi [^3H]thymidine was added to each well. Cells were harvested. after an additional 48 hours incubation, and thymidine incorporation assessed by liquid scintillation counting.

[3] = tested on: IL-2 production from human PBMC; test: inhibition of PHA-stimulated IL-2 production; settings: PHA 20 μg/mL, 48 hours, positive control
Procedure: In this example, the ability of lanolin fractions to inhibit PHA-stimulated IL-2 production from human peripheral blood mononuclear cells (PBMCs) was assayed. IL-2 production from human PBMC was stimulated by phytohemagglutanin (20 μg/mL) based on a procedure described by Konno et al. (Konno S. I. et al. “Inhibition of Cytokine Production from Human Peripheral Blood Leukocytes by Anti-allergic Agents in vitro.” Eur. J. Pharmacol, 264:265-268, 1994) wherein IL-2 levels were measured 48 hours post-stimulation with a commercially available enzyme-immuno assay (EIA) kit and spectrophotometric measurements were performed with a microplate reader (MRX, Dynatech.) The various compositions of the present invention were tested at final concentrations of […], in duplicate. Dexamethasone was used as the positive control in these studies; the IC50 of dexamethasone was 5 nM. The levels of suppression caused by the test compounds are expressed as the percent decrease relative to the vehicle control values.

[4] = tested on: TNF-α production by human PBMCs; test: inhibition of LPS-stimulated TNF-α production; settings: PBMC, LPS 1 μg/mL, 24 hours, positive control
Procedure: TNF-α production by human PBMCs was stimulated using lipopolysaccharide (1 μg/mL) based on a procedure by Schindler et al. (Schindler R et al. Correlations and Interactions in the Production of Interleukin (IL)-6, IL-1, and Tumor Necrosis Factor (TNF) in Human Blood Mononuclear Cells: IL-6 Suppresses IL-1 and TNF. Blood, 75:40-47, 1990). The levels of TNF-α were measured 24 hours following LPS stimulation with a commercially available enzyme-immuno assay (EIA) kit and spectrophotometric measurements were performed with a microplate reader (MRX, Dynatech). The compositions of the present invention were tested in this study were 1, 10, and 50 μg/mL in duplicate. […] The suppression caused by test compounds is expressed as the percent decrease relative to the vehicle control value.

For `Cn1cnc([N+](=O)[O-])c1Sc1ncnc2nc[nH]c12` [azathioprine], the IC50 ([1]; positive controls) was > 10 µM and the IC50 ([2]; compounds known to suppress) was > 10 µM.

For `C[C@@H]1C[C@H]2[C@@H]3CCC4=CC(=O)C=C[C@]4(C)[C@@]3(F)[C@@H](O)C[C@]2(C)[C@@]1(O)C(=O)CO` [dexamethasone], the IC50 [3] was 0.005 µM and the IC50 [4] was ~0.016 µM.

`O=P1(N(CCCl)CCCl)NCCCO1` (stereo not drawn) [cyclophosphamide] was tested, and the IC50 [1] was > 10 µM and the IC50 [2] was > 10 µM.
